Among the data in ChEMBL document CHEMBL3585247, “In Vitro Inhibitory Effects of 8-O-Demethylmaritidine and Undulatine on Acetylcholinesterase and Their Predicted Penetration across the Blood-Brain Barrier” (J Nat Prod, 2015) are IC50 and Papp values, retold here.

The target in one data set is Acetylcholinesterase (Electrophorus electricus, UniProt O42275). The data set is described as follows: Inhibition of electric eel AChE using acetylthiocholine as substrate assessed as concentration of 5-thio-2-nitrobenzoic acid ion formed by spectrophotometric/Ellman's method. (In general: DTNB colorimetry detects thiols as they appear.)
Sequence of Acetylcholinesterase (O42275 whole entry): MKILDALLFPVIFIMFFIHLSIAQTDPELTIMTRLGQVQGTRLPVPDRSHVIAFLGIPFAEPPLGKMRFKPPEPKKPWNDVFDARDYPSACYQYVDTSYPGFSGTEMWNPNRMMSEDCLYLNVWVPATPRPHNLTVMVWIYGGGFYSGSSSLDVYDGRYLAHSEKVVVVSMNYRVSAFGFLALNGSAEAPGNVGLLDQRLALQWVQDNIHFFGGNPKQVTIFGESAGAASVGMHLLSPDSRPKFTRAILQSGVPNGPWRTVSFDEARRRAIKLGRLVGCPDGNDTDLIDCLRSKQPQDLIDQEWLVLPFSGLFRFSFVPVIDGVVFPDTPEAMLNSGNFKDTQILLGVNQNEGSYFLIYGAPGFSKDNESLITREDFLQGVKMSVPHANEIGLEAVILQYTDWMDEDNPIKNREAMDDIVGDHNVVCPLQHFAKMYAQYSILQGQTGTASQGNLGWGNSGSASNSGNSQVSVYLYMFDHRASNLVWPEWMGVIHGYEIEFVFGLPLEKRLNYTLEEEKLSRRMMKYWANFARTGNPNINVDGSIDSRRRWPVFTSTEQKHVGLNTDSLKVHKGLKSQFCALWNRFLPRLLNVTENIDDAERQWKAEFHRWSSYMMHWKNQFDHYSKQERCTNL
A short description of data set [1]: Permeability of the compound by PAMPA-BBB assay. A general note: In PAMPA a lipid-coated filter parts donor from acceptor wells.

The IC50 is the concentration that gives 50% inhibition. One may read the Papp as the rate of passage across a membrane or cell layer, normalised by area and donor concentration.

In the case of `COc1cc2c(cc1O)CN1CC[C@@]23C=CC(O)C[C@H]13` (some centres undefined), the IC50 on Acetylcholinesterase came out at 57.4 µM. Also, the Papp in data set [1] was found to be 0.7 ×10⁻⁶ cm/s.
In the same order, the values of `COc1c2c(cc3c1[C@@]14CCN(C3)[C@@H]1C[C@@H](OC)[C@@H]1O[C@@H]14)OCO2` are 7.4 µM and 18.3 ×10⁻⁶ cm/s.
